Results: US12326492B2, “Systems and methods of detecting interstitial cystitis” (LIPELLA PHARMACEUTICALS, INC., priority 2014, dated 2025)

Assay: MRI bladder phantom permeability assay (dialysis membrane in gelatin, spin-echo MRI)
Format: physicochemical
Settings: membrane 12-14 kD MW cutoff, 425 μM Gd-DTPA, 5 mM Ferumoxytol in lumen
From the text: FIG. 2 is a schematic of synthetic model system (an MRI “bladder phantom”) where membrane porosity and soft matter diffusivity can be controlled. The MRI bladder phantom, shown in FIG. 2, was constructed from clear polycarbonate cylindrical tubes having an outer diameter of 35 mm, a wall thickness of 4 mm, and a length of 90 mm. A sealed (70 mm length, 7 mm diameter) segment of a filled wet dialysis membrane was suspended in the center of each polycarbonate tube lumen and aligned with the tube length, during which a liquid solution (3.125% w/w) of hydrolyzed collagen was added to the lumen of the tube (but not the lumen of the dialysis membrane) and allowed to gel. The dialysis membrane porosity was 12-14 kD MW cutoff. The bladder phantom was placed in a standard mouse MRI RF coil for imaging on a 3-Tesla bench top MRI system with a bore diameter of 160 mm and a 70 mm field of view (MR Solutions, Surrey, UK). […]
This dark line is indicative of a lack of hydrogen nuclei in the liquid state where the dialysis membrane is located, a position that represents the luminal surface of the bladder. […] Since the entire lumen has an increased signal intensity, it is difficult to see without quantitative tools if the gadopentetate dimeglumine (Gd-DTPA) is diffusing into the gelatin an issue that becomes more relevant in a biological setting. […]

In the case of `CNC[C@H](O)[C@@H](O)[C@H](O)[C@H](O)CO.CNC[C@H](O)[C@@H](O)[C@H](O)[C@H](O)CO.O=C([O-])CN(CCN(CC(=O)[O-])CC(=O)O)CCN(CC(=O)[O-])CC(=O)O.[Gd+3]` [Magnevist, Gadopentetate dimeglumine], the “diffusion across the dialysis membrane” value is reported as “porosity large enough to allow gadopentetate dimeglumine (Gd-DTPA) to pass”.

Assay: not given
Settings: T1-reducing contrast agents, Table 1; cited from earlier work

In order of falling “Average Diameter” value:
1. CNC[C@H](O)[C@@H](O)[C@H](O)[C@H](O)CO.CNC[C@H](O)[C@@H](O)[C@H](O)[C@H](O)CO.O=C([O-])CN(CCN(CC(=O)[O-])CC(=O)O)CCN(CC(=O)O)C(COCc1ccccc1)C(=O)[O-].[Gd+3] (stereo not shown) [MultiHance, Gadobenate Dimeglumine]  11 Å
2. O=C([O-])CN(CCN(CC(=O)[O-])CC(COP(=O)([O-])OC1CCC(c2ccccc2)(c2ccccc2)CC1)N(CC(=O)[O-])CC(=O)[O-])CC(=O)[O-].[Gd+3].[Na+].[Na+].[Na+] (stereo not shown) [Ablavar, Gadofosveset trisodium]  10 Å
3. CNC[C@H](O)[C@@H](O)[C@H](O)[C@H](O)CO.CNC[C@H](O)[C@@H](O)[C@H](O)[C@H](O)CO.O=C([O-])CN(CCN(CC(=O)[O-])CC(=O)O)CCN(CC(=O)[O-])CC(=O)O.[Gd+3] [Magnevist, Gadopentetate dimeglumine]  10 Å
4. CCOc1ccc(CC(CN(CCN(CC(=O)[O-])CC(=O)[O-])CC(=O)[O-])N(CC(=O)[O-])CC(=O)[O-])cc1.[Gd+3].[Na+].[Na+] (stereo not shown) [Eovist, Gadoxetate Disodium]  9 Å
5. Gadoterate meglumine [Dotarem]  9 Å
6. CNC(=O)CN(CCN(CCN(CC(=O)[O-])CC(=O)NC)CC(=O)[O-])CC(=O)[O-].[Gd+3] [Omniscan, Gadodiamide]  8 Å
7. COCCNC(=O)CN(CCN(CCN(CC(=O)[O-])CC(=O)NCCOC)CC(=O)[O-])CC(=O)[O-].[Gd+3] [OptiMARK, Gadoversetamide]  8 Å
8. O=C([O-])CN1CCN(CC(=O)[O-])CCN([C@H](CO)[C@H](O)CO)CCN(CC(=O)[O-])CC1.[Gd+3] (racemic) [Gadovist, Gadobutrol]  8 Å
9. CC(O)CN1CCN(CC(=O)[O-])CCN(CC(=O)[O-])CCN(CC(=O)[O-])CC1.[Gd+3] (stereo not shown) [ProHance, Gadoteridol]  7 Å
